Test results reported in US20130035326A1 (AMBIT BIOSCIENCES CORPORATION, priority 2009, published 2013).

Columns and labels:
FLT3 kinase = molecular target: T1, FLT3 kinase (Homo sapiens, UniProt P36888); assay: Competition binding assay, FLT3 Kd
T1 construct: made in house; host or cells: T7 phage display or HEK-293 cells
T1 sequence (P36888 27-993): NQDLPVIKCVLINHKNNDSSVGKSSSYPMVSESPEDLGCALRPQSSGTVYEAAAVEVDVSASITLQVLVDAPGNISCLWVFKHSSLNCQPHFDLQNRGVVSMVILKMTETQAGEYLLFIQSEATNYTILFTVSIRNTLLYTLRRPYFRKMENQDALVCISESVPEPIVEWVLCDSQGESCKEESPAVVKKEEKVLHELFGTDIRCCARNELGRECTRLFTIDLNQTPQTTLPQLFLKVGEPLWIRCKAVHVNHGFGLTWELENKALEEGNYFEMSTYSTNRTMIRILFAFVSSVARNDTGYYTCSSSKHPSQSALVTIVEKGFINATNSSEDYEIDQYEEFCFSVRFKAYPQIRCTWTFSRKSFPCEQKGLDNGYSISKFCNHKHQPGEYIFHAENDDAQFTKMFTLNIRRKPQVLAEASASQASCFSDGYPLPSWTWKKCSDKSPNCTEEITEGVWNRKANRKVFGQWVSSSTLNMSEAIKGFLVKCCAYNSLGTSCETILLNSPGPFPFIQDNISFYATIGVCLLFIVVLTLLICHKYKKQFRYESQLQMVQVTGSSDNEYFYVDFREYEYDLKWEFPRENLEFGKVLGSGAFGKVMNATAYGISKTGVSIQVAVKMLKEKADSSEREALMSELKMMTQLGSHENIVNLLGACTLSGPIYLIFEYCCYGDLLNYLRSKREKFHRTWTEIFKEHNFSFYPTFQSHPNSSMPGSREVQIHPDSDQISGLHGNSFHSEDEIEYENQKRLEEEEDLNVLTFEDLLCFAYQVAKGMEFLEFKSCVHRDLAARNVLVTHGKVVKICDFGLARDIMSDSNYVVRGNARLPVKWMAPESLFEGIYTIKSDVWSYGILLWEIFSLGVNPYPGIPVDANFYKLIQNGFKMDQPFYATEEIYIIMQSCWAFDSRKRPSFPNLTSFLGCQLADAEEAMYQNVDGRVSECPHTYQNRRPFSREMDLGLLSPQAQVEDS
How it was run: (§1)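 Kinases expressed as T7 phage fusions or in HEK-293 cells with DNA tags competed with test compound for immobilized biotinylated affinity ligand on streptavidin beads. Binding ran 1 hour at room temperature in SeaBlock/PBS/Tween/DTT buffer. Bound kinase was eluted with non-biotinylated ligand and quantified by qPCR; Kd from eleven-point threefold dilutions.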

[1] = molecular target: kinase panel containing either 359 or 386 distinct kinases; assay: Selectivity score S10 from competition binding against a panel of kinases; conditions: compounds at 10 μM; panel of 386 distinct kinases
How it was run: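 Compounds were tested at 10 μM in competition binding against T7 phage-fused or HEK-293-expressed DNA-tagged kinases with immobilized affinity ligands, 1 h at room temperature. Bound kinase was quantified by qPCR as percent of DMSO control; S10 is the fraction of distinct kinases (mutants excluded) with POC below 10.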

MV4-11 cells = assay: MV4-11 cell proliferation assay (Alamar Blue); assay type: cell-based; conditions: Homo sapiens, MV4-11, 72 h, 3 days incubation
How it was run: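 Flt3-ITD MV4-11 cells were serum-starved overnight in Iscove's with 0.5% FBS, then given compound at 9 half-log concentrations (0.5% DMSO) for 3 days at 37° C. Alamar Blue reduction was read after 3 h by fluorescence (560/590 nm). IC50 is the mean of duplicates versus negative control.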

CSF-1R kinase = molecular target: T2, CSF-1R kinase (Homo sapiens, UniProt P07333); assay: Competition binding assay, CSF-1R Kd
T2 construct: made in house; host or cells: T7 phage display or HEK-293 cells
T2 sequence (P07333 20-972): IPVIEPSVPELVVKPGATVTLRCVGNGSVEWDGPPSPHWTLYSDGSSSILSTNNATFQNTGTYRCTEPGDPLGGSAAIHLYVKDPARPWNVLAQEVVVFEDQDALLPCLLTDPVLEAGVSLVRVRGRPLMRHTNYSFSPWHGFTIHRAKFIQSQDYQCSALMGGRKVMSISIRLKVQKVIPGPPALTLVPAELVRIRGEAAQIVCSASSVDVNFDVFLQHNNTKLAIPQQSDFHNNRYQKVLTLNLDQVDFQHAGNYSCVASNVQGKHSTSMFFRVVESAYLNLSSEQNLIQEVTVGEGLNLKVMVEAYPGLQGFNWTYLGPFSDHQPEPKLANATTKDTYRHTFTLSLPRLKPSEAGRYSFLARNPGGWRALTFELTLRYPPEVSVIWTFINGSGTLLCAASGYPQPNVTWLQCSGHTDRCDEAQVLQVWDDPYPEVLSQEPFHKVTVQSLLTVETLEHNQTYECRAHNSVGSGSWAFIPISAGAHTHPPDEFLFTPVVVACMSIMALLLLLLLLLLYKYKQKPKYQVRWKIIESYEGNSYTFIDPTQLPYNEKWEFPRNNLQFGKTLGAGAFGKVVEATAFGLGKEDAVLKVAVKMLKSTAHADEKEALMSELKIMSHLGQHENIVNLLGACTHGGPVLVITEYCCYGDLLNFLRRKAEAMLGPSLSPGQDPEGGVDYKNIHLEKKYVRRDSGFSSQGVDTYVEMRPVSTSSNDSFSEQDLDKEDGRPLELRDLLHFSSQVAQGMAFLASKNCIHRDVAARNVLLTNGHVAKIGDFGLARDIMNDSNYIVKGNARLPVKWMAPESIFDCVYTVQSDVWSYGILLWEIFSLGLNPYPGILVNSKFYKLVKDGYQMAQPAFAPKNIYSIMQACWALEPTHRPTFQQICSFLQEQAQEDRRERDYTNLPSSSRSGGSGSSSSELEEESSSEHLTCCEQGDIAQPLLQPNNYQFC
How it was run: as §1

KIT kinase = molecular target: T3, KIT kinase (Homo sapiens, UniProt P10721); assay: Competition binding assay, KIT Kd
T3 construct: made in house; host or cells: T7 phage display or HEK-293 cells
T3 sequence (P10721 26-976): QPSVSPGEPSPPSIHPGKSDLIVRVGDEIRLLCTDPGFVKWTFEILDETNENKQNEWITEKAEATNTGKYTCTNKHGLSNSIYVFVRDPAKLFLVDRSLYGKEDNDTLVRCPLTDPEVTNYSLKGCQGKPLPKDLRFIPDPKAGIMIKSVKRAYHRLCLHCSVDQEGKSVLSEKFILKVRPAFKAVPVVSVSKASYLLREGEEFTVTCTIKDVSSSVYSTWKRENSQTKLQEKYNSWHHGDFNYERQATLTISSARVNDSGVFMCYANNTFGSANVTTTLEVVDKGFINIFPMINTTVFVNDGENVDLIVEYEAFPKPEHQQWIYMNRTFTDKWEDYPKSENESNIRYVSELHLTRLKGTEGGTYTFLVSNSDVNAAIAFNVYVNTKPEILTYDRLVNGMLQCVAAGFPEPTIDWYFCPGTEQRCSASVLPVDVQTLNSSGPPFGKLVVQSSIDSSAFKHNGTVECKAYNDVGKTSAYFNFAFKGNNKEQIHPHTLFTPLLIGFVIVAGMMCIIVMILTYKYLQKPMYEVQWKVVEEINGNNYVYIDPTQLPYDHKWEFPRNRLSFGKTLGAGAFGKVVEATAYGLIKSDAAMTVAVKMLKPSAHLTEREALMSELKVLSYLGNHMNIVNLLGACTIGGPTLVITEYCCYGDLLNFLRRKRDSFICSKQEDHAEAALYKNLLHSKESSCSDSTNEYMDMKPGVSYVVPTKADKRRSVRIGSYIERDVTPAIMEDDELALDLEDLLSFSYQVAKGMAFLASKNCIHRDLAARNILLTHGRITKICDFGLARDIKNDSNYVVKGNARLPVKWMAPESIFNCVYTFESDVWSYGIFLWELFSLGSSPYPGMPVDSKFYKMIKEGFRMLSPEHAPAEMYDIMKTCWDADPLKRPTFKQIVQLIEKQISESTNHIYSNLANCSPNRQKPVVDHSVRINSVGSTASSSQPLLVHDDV
How it was run: as §1

SMILES | Kd (FLT3 kinase) | Kinase specificty: S(10)-386 panel [1] | IC50 (MV4-11 cells) | Kd (CSF-1R kinase) | Kd (KIT kinase)
CC(C)(C)c1cc(NC(=O)Cc2c(F)cc(-c3ccc(N)nc3)cc2F)no1.CS(=O)(=O)O [Example 123, 5-(4-(2-(5-tert-butylisoxazol-3-ylamino)-2-oxoethyl)-3,5-difluorophenyl)pyridin-2-aminium methanesulfonate] | ≤ 1 nM | B (0.1<B≦0.2 nM) | ≤ 1 nM | ≤ 10 nM | 1 to 10 nM
Nc1ccc(-c2ccc(CC(=O)Nc3cc(C4(C(F)(F)F)CCC4)on3)cc2)cn1 [Example 124, 2-(4-(6-aminopyridin-3-yl)phenyl)-N-(5-(1-(trifluoromethyl)cyclobutyl)isoxazol-3-yl)acetamide] | ≤ 1 nM | B (0.1<B≦0.2 nM) | ≤ 1 nM | ≤ 10 nM | 1 to 10 nM
CC(C)(C)c1cc(NC(=O)Cc2ccc(-c3ccc(N)nc3)c(F)c2)no1.CS(=O)(=O)O [Example 125, 5-(4-(2-(5-tert-butylisoxazol-3-ylamino)-2-oxoethyl)-2-fluorophenyl)pyridin-2-aminium methanesulfonate] | ≤ 1 nM | A (A≦0.1) | ≤ 1 nM | ≤ 10 nM | ≤ 1 nM
CS(=O)(=O)O.Nc1ccc(-c2ccc(CC(=O)Nn3cc(C(F)(F)F)cn3)cc2)cn1 [Example 126, 5-(4-(2-oxo-2-(4-(trifluoromethyl)-1H-pyrazol-1-ylamino)ethyl)phenyl)pyridin-2-aminium methanesulfonate] | ≤ 1 nM | A (A≦0.1) | 10 to 100 nM | 10 to 100 nM | 1 to 10 nM
CC1(c2cc(NC(=O)Cc3ccc(-c4cnc(N)c(Cl)c4)cc3)no2)COC1.CS(=O)(=O)O [Example 128, 3-chloro-5-(4-(2-((5-(3-methyloxetan-3-yl)isoxazol-3-yl)amino)-2-oxoethyl)phenyl)pyridin-2-aminium methanesulfonate] | ≤ 1 nM | B (0.1<B≦0.2 nM) | 1 to 10 nM | ≤ 10 nM | 1 to 10 nM
COc1nc(N)ccc1-c1ccc(CC(=O)Nc2cc(C(C)(C)C)on2)cc1.CS(=O)(=O)O [Example 131, 5-(4-(2-(5-tert-butylisoxazol-3-ylamino)-2-oxoethyl)phenyl)-6-methoxypyridin-2-aminium methanesulfonate] | 1 to 10 nM | A (A≦0.1) | 100 to 500 nM | > 500 nM | 10 to 100 nM
CC(C)(C)c1cc(NC(=O)Cc2ccc(-c3ccc(N)nc3Cl)cc2)no1.CS(=O)(=O)O [Example 132, 5-(4-(2-(5-tert-butylisoxazol-3-ylamino)-2-oxoethyl)phenyl)-6-chloropyridin-2-aminium methanesulfonate] | ≤ 1 nM | A (A≦0.1) | 1 to 10 nM | ≤ 10 nM | 1 to 10 nM
CS(=O)(=O)O.Nc1ncc(-c2ccc(CC(=O)Nc3cc(C4(C(F)(F)F)CC4)on3)cc2)cc1Cl [Example 133, 3-chloro-5-(4-(2-oxo-2-(5-(1-(trifluoromethyl)cyclopropyl)isoxazol-3-ylamino)ethyl)phenyl)pyridin-2-aminium methanesulfonate] | ≤ 1 nM | B (0.1<B≦0.2 nM) | ≤ 1 nM | ≤ 10 nM | 1 to 10 nM
CC1(c2cc(NC(=O)Cc3ccc(-c4ccc(N)nc4F)cc3)no2)CC1 [Example 134, 2-(4-(6-amino-2-fluoropyridin-3-yl)phenyl)-N-(5-(1-methylcyclopropyl)isoxazol-3-yl)acetamide] | ≤ 1 nM | A (A≦0.1) | 1 to 10 nM | ≤ 10 nM | ≤ 1 nM
CC1(c2cc(NC(=O)Cc3ccc(-c4cnc(N)c(C(F)(F)F)c4)cc3)no2)COC1.CS(=O)(=O)O [Example 135, 5-(4-(2-((5-(3-methyloxetan-3-yl)isoxazol-3-yl)amino)-2-oxoethyl)phenyl)-3-(trifluoromethyl)pyridin-2-aminium methanesulfonate] | ≤ 1 nM | B (0.1<B≦0.2 nM) | 1 to 10 nM | ≤ 10 nM | 1 to 10 nM
COc1cc(-c2ccc(CC(=O)Nc3cc(C(C)(C)C)on3)cc2)cnc1N.CS(=O)(=O)O [Example 136, 5-(4-(2-(5-tert-butylisoxazol-3-ylamino)-2-oxoethyl)phenyl)-3-methoxypyridin-2-aminium methanesulfonate] | ≤ 1 nM | B (0.1<B≦0.2 nM) | ≤ 1 nM | ≤ 10 nM | 1 to 10 nM
CS(=O)(=O)O.Nc1ccc(-c2ccc(CC(=O)Nc3cc(C4(C(F)(F)F)CC4)on3)cc2)c(F)n1 [Example 137, 6-fluoro-5-(4-(2-oxo-2-(5-(1-(trifluoromethyl)cyclopropyl)isoxazol-3-ylamino)ethyl)phenyl)pyridin-2-aminium methanesulfonate] | ≤ 1 nM | A (A≦0.1) | ≤ 1 nM | 10 to 100 nM | 1 to 10 nM
CC1(c2cc(NC(=O)Cc3ccc(-c4cnc(N)c(F)c4)cc3)no2)CC1.CS(=O)(=O)O [Example 138, 3-fluoro-5-(4-(2-(5-(1-methylcyclopropyl)isoxazol-3-ylamino)-2-oxoethyl)phenyl)pyridin-2-aminium methanesulfonate] | ≤ 1 nM | B (0.1<B≦0.2 nM) | ≤ 1 nM | ≤ 10 nM | ≤ 1 nM
CS(=O)(=O)O.Nc1ccc(-c2ccc(CC(=O)Nc3cc(C4(C(F)(F)F)CC4)on3)c(F)c2)cn1 [Example 139, 5-(3-fluoro-4-(2-oxo-2-(5-(1-(trifluoromethyl)cyclopropyl)isoxazol-3-ylamino)ethyl)phenyl)pyridin-2-aminium methanesulfonate] | ≤ 1 nM | B (0.1<B≦0.2 nM) | ≤ 1 nM | ≤ 10 nM | 1 to 10 nM
CC1(c2cc(NC(=O)Cc3ccc(-c4ccc(N)nc4F)cc3)no2)COC1 [Example 140, 2-(4-(6-amino-2-fluoropyridin-3-yl)phenyl)-N-(5-(3-methyloxetan-3-yl)isoxazol-3-yl)acetamide] | ≤ 1 nM | A (A≦0.1) | 10 to 100 nM | ≤ 10 nM | 1 to 10 nM
CC(C)(C)c1cc(NC(=O)Cc2ccc(-c3cnc4[nH]c(=O)oc4c3)cc2)no1 [Example 141, N-(5-tert-butylisoxazol-3-yl)-2-(4-(2-oxo-2,3-dihydrooxazolo[4,5-b]pyridin-6-yl)phenyl)acetamide] | 1 to 10 nM | B (0.1<B≦0.2 nM) | 1 to 10 nM | 10 to 100 nM | 1 to 10 nM
CC(C)(c1cc(NC(=O)Cc2ccc(-c3ccc(N)nc3F)cc2)no1)C(F)(F)F.CS(=O)(=O)O [Example 142, 6-fluoro-5-(4-(2-oxo-2-(5-(1,1,1-trifluoro-2-methylpropan-2-yl)isoxazol-3-ylamino)ethyl)phenyl)pyridin-2-aminium methanesulfonate] | ≤ 1 nM | A (A≦0.1) | ≤ 1 nM | ≤ 10 nM | 1 to 10 nM
CS(=O)(=O)O.Nc1ccc(-c2ccc(CC(=O)Nc3cc(C4CCC4)no3)cc2)cn1 [Example 143, 5-(4-(2-((3-cyclobutylisoxazol-5-yl)amino)-2-oxoethyl)phenyl)pyridin-2-aminium methanesulfonate] | ≤ 1 nM | A (A≦0.1) | 1 to 10 nM | ≤ 10 nM | ≤ 1 nM
